For 30 compounds, remaining activity results are on record in PMC8286840, “Identifying SARS-CoV-2 antiviral compounds by screening for small molecule inhibitors of Nsp3 papain-like protease” (Biochemical Journal, 2021).

Assay [1] has as its target T1, SARS-CoV-2 PLpro (nsp3 1564–1878) (Severe acute respiratory syndrome coronavirus 2, UniProt P0DTD1). As to the kind of experiment: biochemical. On the set-up: FRET-quenched peptide (Pro3) cleavage by PLpro, 10 min pre-incubation, slope over 20 min, normalised to no-compound control. To be noted: low concentration screen.
Assay [2] has as its target T1, SARS-CoV-2 PLpro (nsp3 1564–1878). As to the kind of experiment: biochemical. Details: FRET-quenched peptide (Pro3) cleavage by PLpro, 10 min pre-incubation, slope over 20 min, normalised to no-compound control. The settings on record: high concentration screen.
Where [3] appears, read: Well no.=7982, read-out: % of control remaining.
The mark [4] stands for this setting: Well no.=273, read-out: % of control remaining.
The mark [5] stands for this setting: Well no.=8068, read-out: % of control remaining.
The mark [6] stands for this setting: Well no.=5026, read-out: % of control remaining.
The mark [7] stands for this setting: Well no.=6621, read-out: % of control remaining.
The mark [8] stands for this setting: Well no.=125, read-out: % of control remaining.
Setting [9] is: Well no.=77, read-out: % of control remaining.
The mark [10] stands for this setting: Well no.=7091, read-out: % of control remaining.
The mark [11] stands for this setting: Well no.=5651, read-out: % of control remaining.
[12] abbreviates: read-out: % of control remaining, Well no.=271.
[13] abbreviates: read-out: % of control remaining, Well no.=2171.
Setting [14] is: read-out: % of control remaining, Well no.=6566.
[15] abbreviates: Well no.=6849, read-out: % of control remaining.
The mark [16] stands for this setting: Well no.=175, read-out: % of control remaining.
Where [17] appears, read: Well no.=1735, read-out: % of control remaining.
The mark [18] stands for this setting: Well no.=6177, read-out: % of control remaining.
[19] abbreviates: Well no.=7565, read-out: % of control remaining.
Where [20] appears, read: Well no.=322, read-out: % of control remaining.
Where [21] appears, read: Well no.=3835, read-out: % of control remaining.
[22] abbreviates: Well no.=3089, read-out: % of control remaining.
The mark [23] stands for this setting: Well no.=6646, read-out: % of control remaining.
Setting [24] is: Well no.=1814, read-out: % of control remaining.
The mark [25] stands for this setting: Well no.=1660, read-out: % of control remaining.
The mark [26] stands for this setting: Well no.=5197, read-out: % of control remaining.
[27] abbreviates: Well no.=1860, read-out: % of control remaining.
The mark [28] stands for this setting: Well no.=5916, read-out: % of control remaining.
The mark [29] stands for this setting: Well no.=2173, read-out: % of control remaining.
Setting [30] is: Well no.=6188, read-out: % of control remaining.
The mark [31] stands for this setting: Well no.=7013, read-out: % of control remaining.
Where [32] appears, read: Well no.=3091, read-out: % of control remaining.
Setting [33] is: Well no.=5237, read-out: % of control remaining.
Setting [34] is: Well no.=3519, read-out: % of control remaining.
The mark [35] stands for this setting: Well no.=5359, read-out: % of control remaining.

Each structure is given as a SMILES string. Where a name gives a salt, the structure may show the parent alone. Read-outs that look alike come from different tables or passages of the source.

In the case of `O=S(=O)(O)c1cc(O)c2c(N=Nc3c(S(=O)(=O)O)cc4cc(S(=O)(=O)O)cc(O)c4c3O)cc(S(=O)(=O)O)cc2c1` [Beryllon II], in assay [1] (setting [3]), the remaining activity at 1.25 µM turned out to be 92.8%. The remaining activity at 3.75 µM in assay [2] (setting [3]) came out at 93.7%.
Take `CC(C)C[C@H](NC(=O)[C@@H](O)[C@H](N)Cc1ccccc1)C(=O)O` [Bestatin hydrochloride]: in assay [1] (setting [4]), the remaining activity at 1.25 µM was 96.2%. Besides, in assay [2] (setting [4]), the remaining activity at 3.75 µM was determined as 97.1%.
`CC(C)C[C@H](NC(=O)[C@@H](O)[C@H](N)Cc1ccccc1)C(=O)O` [Bestatin]: the remaining activity at 1.25 µM in assay [1] (setting [5]) turned out to be 98.5%. Moreover, the remaining activity at 3.75 µM in assay [2] (setting [5]) was 97.8%.
For `CNCCc1ccccn1` [Betahistine 2HCl], the remaining activity at 1.25 µM in assay [1] (setting [6]) was 97.2%. Moreover, in assay [2] (setting [6]), the remaining activity at 3.75 µM turned out to be 98.9%.
With `CNCCc1ccccn1` [Betahistine (dihydrochloride)], the remaining activity at 1.25 µM in assay [1] (setting [7]) came to 98.5%. Besides, in assay [2] (setting [7]), the remaining activity at 3.75 µM amounted to 92.4%.
Take `C[N+](C)(C)CC=O` [Betaine aldehyde chloride]: the remaining activity at 1.25 µM in assay [1] (setting [8]) is 96.6%. Also, the remaining activity at 3.75 µM in assay [2] (setting [8]) is 102%.
For the compound `C[N+](C)(C)CC(=O)O` [Betaine hydrochloride], the remaining activity at 1.25 µM in assay [1] (setting [9]) was 101%. The remaining activity at 3.75 µM in assay [2] (setting [9]) worked out at 103%.
With `CCC(=O)OCC(=O)[C@@]1(OC(=O)CC)[C@@H](C)C[C@H]2[C@@H]3CCC4=CC(=O)C=C[C@]4(C)[C@@]3(F)[C@@H](O)C[C@@]21C` [Betamethasone dipropionate], the remaining activity at 1.25 µM in assay [1] (setting [10]) worked out at 93.4%. Moreover, the remaining activity at 3.75 µM in assay [2] (setting [10]) was 98.8%.
On to `CCCCC(=O)O[C@]1(C(=O)CO)[C@@H](C)C[C@H]2[C@@H]3CCC4=CC(=O)C=C[C@]4(C)[C@@]3(F)[C@@H](O)C[C@@]21C` [Betamethasone valerate], for which, in assay [1] (setting [11]), the remaining activity at 1.25 µM stood at 94.9%. Besides, in assay [2] (setting [11]), the remaining activity at 3.75 µM amounted to 97.2%.
Consider `C[C@H]1C[C@H]2[C@@H]3CCC4=CC(=O)C=C[C@]4(C)[C@@]3(F)[C@@H](O)C[C@]2(C)[C@@]1(O)C(=O)CO` [Betamethasone], for which the values for the remaining activity at 1.25 µM in assay [1] (setting [12]), in assay [1] (setting [13]) and in assay [1] (setting [14]) were 97.7%, 93.5% and 94.8%, respectively. Also, the remaining activity at 3.75 µM stood at 95.6% in assay [2] (setting [12]), 93.7% in assay [2] (setting [13]) and 95.4% in assay [2] (setting [14]).
On to `CC(C)NCC(O)COc1ccc(CCOCC2CC2)cc1` (stereo not drawn) [Betaxolol (hydrochloride)], for which the remaining activity at 1.25 µM in assay [1] (setting [15]) was determined as 107%. For the same compound, the remaining activity at 3.75 µM in assay [2] (setting [15]) was found to be 102%.
In the case of `CC(C)NCC(O)COc1ccc(CCOCC2CC2)cc1` (stereo not drawn) [Betaxolol hydrochloride], the remaining activity at 1.25 µM in assay [1] (setting [16]) came to 102%. Besides, the remaining activity at 3.75 µM in assay [2] (setting [16]) was 101%.
As to `CC(C)NCC(O)COc1ccc(CCOCC2CC2)cc1` (stereo not drawn) [Betaxolol.HCl], the remaining activity at 1.25 µM in assay [1] (setting [17]) is 99.1%. Also, the remaining activity at 3.75 µM in assay [2] (setting [17]) was 99.8%.
Turning to `CC(C)NCC(O)COc1ccc(CCOCC2CC2)cc1` (stereo not drawn) [Betaxolol], the remaining activity at 1.25 µM in assay [1] (setting [18]) stood at 104%. For the same compound, the remaining activity at 3.75 µM in assay [2] (setting [18]) was determined as 97.1%.
As to `CC(C[N+](C)(C)C)OC(N)=O` (stereo not drawn) [Bethanechol (chloride)], in assay [1] (setting [19]), the remaining activity at 1.25 µM was 99.8%. Also, in assay [2] (setting [19]), the remaining activity at 3.75 µM came to 92.1%.
As to `CC(C[N+](C)(C)C)OC(N)=O` (stereo not drawn) [Bethanechol chloride], the remaining activity at 1.25 µM in assay [1] (setting [20]) was found to be 102%. For the same compound, the remaining activity at 3.75 µM in assay [2] (setting [20]) was 102%.
Turning to `C=C(C)[C@@H]1CC[C@]2(CO)CC[C@]3(C)[C@H](CC[C@@H]4[C@@]5(C)CC[C@H](O)C(C)(C)[C@@H]5CC[C@]43C)[C@@H]12` [Betulin], the remaining activity at 1.25 µM in assay [1] (setting [21]) was 103%. The remaining activity at 3.75 µM in assay [2] (setting [21]) is 101%.
`C=C(C)[C@@H]1CC[C@]2(C(=O)O)CC[C@]3(C)[C@H](CC[C@@H]4[C@@]5(C)CC[C@H](O)C(C)(C)[C@@H]5CC[C@]43C)[C@@H]12` [Betulinic acid]: the remaining activity at 1.25 µM in assay [1] (setting [22]) amounted to 102%; in assay [1] (setting [23]), 105%. Besides, the remaining activity at 3.75 µM stood at 101% in assay [2] (setting [22]) and 100% in assay [2] (setting [23]).
In the case of `C=C(c1ccc(C(=O)O)cc1)c1cc2c(cc1C)C(C)(C)CCC2(C)C` [Bexarotene], the remaining activity at 1.25 µM in assay [1] (setting [24]) came to 93.1%. In addition, in assay [2] (setting [24]), the remaining activity at 3.75 µM was determined as 94.9%.
Consider `CC(C)(Oc1ccc(CCNC(=O)c2ccc(Cl)cc2)cc1)C(=O)O` [Bezafibrate], for which, in assay [1] (setting [25]), the remaining activity at 1.25 µM was 98.3%. For the same compound, the remaining activity at 3.75 µM in assay [2] (setting [25]) came to 97.5%.
As for `C[C@@H](O)[C@H]1C(=O)N2C(C(=O)[O-])=C(SC3Cn4cnc[n+]4C3)[C@H](C)[C@H]12` (stereo partly drawn) [Biapenem], in assay [1] (setting [26]), the remaining activity at 1.25 µM worked out at 99.1%. Further, in assay [2] (setting [26]), the remaining activity at 3.75 µM came to 100%.
`CC(O)(CS(=O)(=O)c1ccc(F)cc1)C(=O)Nc1ccc(C#N)c(C(F)(F)F)c1` (stereo not drawn) [Bicalutamide]: the remaining activity at 1.25 µM in assay [1] (setting [27]) was determined as 97.5%. In addition, the remaining activity at 3.75 µM in assay [2] (setting [27]) turned out to be 99.2%.
On to `COC(=O)c1cc(OC)c2c(c1-c1c(CO)cc(OC)c3c1OCO3)OCO2` [Bicyclol], for which the remaining activity at 1.25 µM in assay [1] (setting [28]) came to 107%. The remaining activity at 3.75 µM in assay [2] (setting [28]) worked out at 100%.
As to `c1ccc(-c2ccc(C(c3ccccc3)n3ccnc3)cc2)cc1` (stereo not drawn) [Bifonazole], in assay [1] (setting [29]), the remaining activity at 1.25 µM came to 99.6%. For the same compound, in assay [2] (setting [29]), the remaining activity at 3.75 µM was 101%.
For the compound `CCOCCn1c(C2CCN(CCc3ccc(C(C)(C)C(=O)O)cc3)CC2)nc2ccccc21` [Bilastine], the remaining activity at 1.25 µM in assay [1] (setting [30]) was found to be 101%. For the same compound, the remaining activity at 3.75 µM in assay [2] (setting [30]) is 100%.
For the compound `C=CC1=C(C)/C(=C/c2[nH]c(Cc3[nH]c(/C=C4\NC(=O)C(C)=C4C=C)c(C)c3CCC(=O)O)c(CCC(=O)O)c2C)NC1=O` [Bilirubin], in assay [1] (setting [31]), the remaining activity at 1.25 µM is 103%. In assay [2] (setting [31]), the remaining activity at 3.75 µM turned out to be 104%.
`CC(C)(C)[C@]1(O)C[C@@H]2OC(=O)C[C@@]23C(=O)O[C@@H]2OC(=O)[C@H](O)[C@]213` [Bilobalide]: in assay [1] (setting [32]), the remaining activity at 1.25 µM amounted to 105%. Moreover, the remaining activity at 3.75 µM in assay [2] (setting [32]) was 105%.
As to `CCNC(=O)CCC/C=C\C[C@@H]1[C@@H](/C=C/[C@@H](O)CCc2ccccc2)[C@H](O)C[C@@H]1O` [Bimatoprost], the remaining activity at 1.25 µM in assay [1] (setting [33]) was 100%. The remaining activity at 3.75 µM in assay [2] (setting [33]) was 101%.
On to `COc1ccc(-c2coc3cc(O)cc(O)c3c2=O)cc1` [Biochanin A], for which, in assay [1] (setting [34]), the remaining activity at 1.25 µM turned out to be 103%. Moreover, in assay [2] (setting [34]), the remaining activity at 3.75 µM was determined as 101%.
For `O=C(O)CCCC[C@@H]1SC[C@@H]2NC(=O)N[C@@H]21` [Biotin (Vitamin B7)], in assay [1] (setting [35]), the remaining activity at 1.25 µM turned out to be 98.1%. Besides, the remaining activity at 3.75 µM in assay [2] (setting [35]) was 95.3%.
